Source: patent US6090987A, “Metal-ligand complex catalyzed processes” (Union Carbide Chemicals & Plastics Technology Corporation, priority 1998, dated 2000)

Key:
[1] = Propylene hydroformylation rate and colour of (TPP)3 Rh(CO)H catalyst after thermal treatment; conditions: for hydroformylation rate: 100° C.
Description: TPP is triphenylphosphine. 15 grams of this bright yellow solution was charged to a Fisher Porter bottle under inert gas. To this solution was added 20 psi of butadiene with stirring. The pressure dropped as the butadiene dissolved into the solution. The reactor was repressured twice with butadiene (20 psig) and then the reaction was place under a total of 45 psig with nitrogen. The solution was heated to 120° C. for 15 minutes. […] At ambient temperature, the reaction was placed under vacuum for 4 hours to remove any excess butadiene.
Since the solvent has a very high boiling point, the concentration of rhodium was assumed to have remained unchanged while under vacuum. Indeed, no change in volume was detected visually while under vacuum. 15.0 milliliters of the 275 parts per million solution was charged to a 100 milliliter autoclave.
This example is a control for Example 23. 15 grams of the catalyst solution prepared in Example 23 was charged to a Fisher Porter bottle under inert gas. 45 psig of nitrogen was added to the reaction vessel, then the reaction was heated to 120° C. for 15 minutes. […] 15.0 milliliters of the 275 parts per million solution was charged to a 100 milliliter autoclave.
A catalyst solution was prepared by adding 113 milligrams of (TPP)3 Rh(CO)H to 40.4 grams Filmer IBT® available from Union Carbide Corporation, Danbury, Conn., resulting in a rhodium concentration of 312 parts per million. At this point, the rhodium complex was a suspended in the solvent. Approximately 20 grams of this solution of (TPP)3 Rh(CO)H in tetraglyme was charged to a Fisher Porter bottle under inert gas. To this solution was added 30 psi of butadiene with stirring. The pressure dropped to 20 psig as the butadiene dissolved into the solution. The reactor was repressured twice with butadiene (30 psig) and then the pressure was adjusted to 60 psig with nitrogen. The solution was placed into 140° C. oil bath, which caused the reaction to become homogeneous within a minute. The reaction was maintained at 140° C. for 50 minutes. […] The reaction vessel was removed from the oil bath and the butadiene was vented from the reactor while the reaction was hot. After gas evolution ceased, the reaction vessel was placed carefully placed under dynamic vacuum until gas evolution had ceased for 10 minutes. The reaction was then placed under a slight positive pressure of nitrogen. […] 15.0 milliliters of the 284 parts per million solution was charged to a 100 milliliter autoclave.
This example serves as a control for Example 25. Approximately 20 grams of the solution prepared in Example 25 was charged to a Fisher Porter bottle under inert gas. 60 psig of nitrogen was added to the reaction vessel, then the reaction was heated to 140° C. for approximately 110 minutes. […] This solution was place into and out of the oil bath at the same time as the solution in Example 25. After thermal treatment, 10 weight percent of triphenylphosphine was added to the reaction mixture. […] 15 milliliters of the 284 parts per million solution was charged to a 100 milliliter autoclave.

[2] = Residual propylene hydroformylation activity after heat treatment, Ligand F catalyst (Table 1)
Description: A catalyst solution (100 milliliters) was generated in a six ounce Fisher Porter Bottle by dissolving 0.063 grams of rhodium dicarbonyl 2,4-pentanedionate, 0.8 grams of Ligand F, 20 grams of n-butyraldehyde, and 78.7 grams of tetraethylene glycol dimethyl ether, subsequently alternately evacuating and flushing with nitrogen; and finally adding 60 psi of CO:H2, and placing the bottles in a 100° C. oil bath for 1 hour.
After closing the reactor, the system was again purged with nitrogen and place in an oil bath heated to 100° C. The hydroformylation reaction in each experiment was conducted at a total gas pressure of 160 psig. The target partial pressure of hydrogen, carbon monoxide, and propylene being about 45 psia, 45 psia, and 5 psia respectively, with the remainder being nitrogen. The flows of the feed gases (carbon monoxide, hydrogen, propylene, and nitrogen) were controlled individually with mass flow meters. The feed gases were dispersed into the precursor solution via stainless steel 7-micron filters used as spargers. The unreacted portion of the feed gases stripped out the product aldehydes. Each experiment was operated for 24 hours under the above conditions. The activity is defined as the observed reaction rate divided by the predicted reaction rate. The reaction rates are expressed in terms of gram moles per liter per hour.
The same procedure as in Example 2 was followed with the exception that a slow stream of 1,2-propadiene was purged through the initially generated catalyst solution for 5 minutes. Excess was then removed by alternately evacuating and flushing with nitrogen. The resulting solution was heated at 125° C. as in Example 2, and 20 milliliters of the resulting solution was transferred to a glass reactor as in Example 2 and the activity determined.
The same procedure as in Example 3 was followed except 2 milliliters of 1,3-butadiene was added to the generated catalyst and stirred for 5 minutes. Excess 1,3-butadiene was then removed by alternate evacuation and flushing with nitrogen. The resulting solution was heated at 125° C. as in Example 2, and 20 milliliters of the resulting solution was transferred to a glass reactor as in Example 2 and the activity determined.
The same procedure as in Example 4 was followed with the exception that 50 milliliters of a catalyst solution generated as in Example 2 was treated with 0.5 milliliters of 2-methyl-1,3-butadiene (isoprene) in place of 1,3-butadiene.
A catalyst solution (20 milliliters) was generated in a Fisher Porter Bottle as in Example 2 under 60 psi CO:H2 for 1 hour, then cooled to room temperature and treated with 0.5 milliliters of 1,3-butadiene. The solution was removed from the Fisher Bottle by hypodermic syringe and transferred to a 100 milliliter stirred stainless vessel and maintained at 140° C. under 15 psi nitrogen for 14 hours. The resulting solution was then transferred to the glass reactors as in Example 2, and the residual catalyst activity measured. […]
The same procedure as in Example 8 was followed except allene was employed in place of 1,3-butadiene, and the resulting solution heated at 140° C. for 48 hours without removing excess allene.
A 20 milliliter sample of freshly generated catalyst solution (prepared as in Example 2) was charged to the glass reactors and the activity measured.
The same procedure as in Example 8 was followed except 0.4 grams of 1,3-cyclohexadiene was employed in place of 1,3-butadiene.

[3] = 125° C./24 hours, no excess diene
[4] = 140° C./14 hours, excess diene present
[5] = 140° C./48 hours, excess diene present

Compound: C=CC=C [Butadiene, 1,3-butadiene]
- color change of catalyst solution ([1]; 120° C. for 15 minutes under butadiene/nitrogen): No color change was observed
- color of catalyst solution ([1]; 140° C. for 50 minutes under butadiene/nitrogen): maintained a bright yellow color
- color change of catalyst solution ([1]; 140° C. for further 60 minutes, butadiene removed): no observable color change
- hydroformylation rate ([1]; after 120° C. for 15 minutes with butadiene, 275 ppm Rh, 9.1 wt% triphenylphosphine, 115 psig): 1.4 gmol/L-h
- hydroformylation rate ([1]; after 140° C. for 50 minutes with butadiene and 60 minutes after venting, 284 ppm Rh, 95 psig): 1.0 gmol/L-h
- % Activity [2, 3]: 102%
- Final Rate [2, 3]: 2.23 gram moles per liter per hour
- % Activity [2, 4]: 25.2%
- Final Rate [2, 4]: 0.55 gram moles per liter per hour
- % Activity [2, 5]: 96.3%
- Final Rate [2, 5]: 2.10 gram moles per liter per hour
